Data set [1] can be described thus: Model of passage through the intestinal barrier constituted of Caco-2 cells. The data set is classed as in vitro ADME. The following applies: human, concentration=20 μM, apical pH=6.5 and basal pH=7.4, read-out: Ptot, coefficient of apparent permeability for the monolayer of intestinal epithelial cells plus filter. The source says:
The compounds according to the invention were investigated on a model of passage through the intestinal barrier constituted of Caco-2 cells. (M. C. Grès, Pharm. Res., 1998, 15(5), 726-733). This model makes it possible to define the coefficient Ptot of apparent permeability of the product for the monolayer of intestinal epithelial cells plus filter. As examples, compounds No. 60 (ex. 5) and No. 90 (ex. 7) have, in this model, a Ptot of 111.97 and 64.5 respectively (10^−7 cm·s^−1; concentration=20 μM; apical pH=6.5 and basal pH=7.4). These values are predictive of total absorption in humans, after administration by the oral route.

Turning to `CC(C)(C)C(=O)NCc1cc(-c2ccc(Cl)c(Cl)c2)n(Cc2ccc(Cl)c(Cl)c2)n1` [Compound 60, N-((1-(3,4-Dichlorobenzyl)-5-(3,4-dichlorophenyl)-1H-pyrazol-3-yl)methyl)-2,2-dimethylpropanamide], the Papp at 20 μM in data set [1] came to 11.2 ×10⁻⁶ cm/s. Consider `Cc1ccc(Cn2nc(CNC(=O)NC(C)(C)C)cc2-c2ccc(Cl)c(Cl)c2)cc1Cl` [Compound 81, N-(tert-Butyl)-N′-((1-(3-chloro-4-methylbenzyl)-5-(3,4-dichlorophenyl)-1H-pyrazol-3-yl)methyl)urea], for which the melting point is 181 °C. As for `CC(C)(C)S(=O)(=O)NCc1cc(-c2ccc(Cl)c(Cl)c2)n(Cc2ccc(Cl)c(Cl)c2)n1` [Compound 90, N-((1-(3,4-Dichlorobenzyl)-5-(3,4-dichlorophenyl)-1H-pyrazol-3-yl)methyl)-2-methylpropane-2-sulfonamide], the melting point stood at 127 °C. Moreover, in data set [1], the Papp at 20 μM amounted to 6.45 ×10⁻⁶ cm/s.
